Results reported in ChEMBL document CHEMBL1122790, “Novel opiates and antagonists. 6. 7-Alkyl-6,7-didehydromorphinans” (1984).
Activity calls are given as the source filed them. The rule behind the calls is not given here.

Tests used:
Mus musculus [1] = assay: Analgesic activity in the mouse acetic acid writhing test following s.c. administration.; assay type: functional; details: sc
Rattus norvegicus [2] = assay: Compound was evaluated for its analgesic activity by Rat-tail-flick test after subcutaneous administration at a dose 10 mg/kg; Ia= inactive; assay type: functional, organism-based; design: dose 10 mg/kg
Rattus norvegicus [3] = assay: Compound was evaluated for its analgesic activity by Rat-tail-flick test after subcutaneous administration; assay type: functional; details: for ED50: sc
Mus musculus [4] = assay: Compound was evaluated for its analgesic activity by mouse acetic acid writhing test after subcutaneous administration at a dose 10 mg/kg; Ia= inactive; assay type: functional, organism-based; design: dose 10 mg/kg
Mus musculus [5] = assay: Compound was evaluated for its analgesic activity by mouse acetic acid writhing test after subcutaneous administration at a dose 10 mg/kg; assay type: functional; details: sc

| Compound | ED50 (Mus musculus [1]) [mg/kg] | ED50 (Rattus norvegicus [3]) [mg/kg] | other results |
| --- | --- | --- | --- |
| COc1ccc2c3c1OC1C=C(C=O)CC4(O)C(C2)N(C)CCC314 (stereo not drawn) | 3.6 |  |  |
| COc1ccc2c3c1OC1C=C(C=O)CC4C(C2)N(C)CCC314 (stereo not drawn) | 1.45 |  | ED50 (Rattus norvegicus [2]): inactive |
| CC(=O)C1=CCC23CCN(C)C(Cc4ccc(O)cc42)C3C1 (stereo not drawn) | > 10 | > 10 |  |
| CN1CC[C@]23c4c5ccc(O)c4O[C@H]2C(=O)CC[C@H]3[C@H]1C5.Cl [HYDROMORPHONE HYDROCHLORIDE] | 0.08 |  |  |
| CCCCC(C)(O)C1=CCC23CCN(C)C(Cc4ccc(OC)cc42)C3C1 (stereo not drawn) |  |  | ED50 (Mus musculus [4]): inactive; ED50 (Rattus norvegicus [2]): inactive |
| COc1ccc2c(c1)C13CC=C(C=O)C[C@@H]1C(C2)N(C)CC3.Cl (stereo partly drawn) |  |  | ED50 (Mus musculus [5]): 4.55 mg/kg |
| CCCCC(=O)C1=CCC23CCN(C)C(Cc4ccc(O)cc42)[C@H]3C1 (stereo partly drawn) | 0.046 | 0.0135 |  |
| COc1ccc2c3c1O[C@H]1C(=O)CC[C@@]4(O)[C@@H](C2)N(C)CC[C@]314.Cl [OXYCODONE HYDROCHLORIDE] | 0.3 |  |  |
| CCCCC(O)C1=CC2Oc3c(OC)ccc4c3C23CCN(C)C(C4)C3C1 (stereo not drawn) | 3.13 |  | ED50 (Rattus norvegicus [2]): inactive |
| COc1ccc2c3c1O[C@H]1C(=O)CC[C@H]4[C@@H](C2)N(C)CC[C@]314.O=C(O)C(O)C(O)C(=O)O | 1.06 |  |  |
| CCCCC(=O)C1=CCC23CCN(C)C(Cc4ccc(OC)cc42)[C@H]3C1.Cl (stereo partly drawn) | 0.82 |  |  |
| COc1ccc2c(c1)C13CC=C(C=O)C[C@@H]1C(C2)N(C)CC3 (stereo partly drawn) [listing 1 of 2 here] |  |  | ED50 (Rattus norvegicus [2]): inactive |
| CCCCC(C)(O)C1=CCC23CCN(C)C(Cc4ccc(OC)cc42)[C@H]3C1 (stereo partly drawn) | 0.0125 | 3.2 |  |
| CCCCC(=O)C1=CC2Oc3c(OC)ccc4c3C23CCN(C)C(C4)C3C1.Cl (stereo not drawn) |  | > 10 | ED50 (Mus musculus [4]): inactive |
| CCCCC(O)C1=CCC23CCN(C)C(Cc4ccc(OC)cc42)[C@@H]3C1 (stereo partly drawn) |  |  | ED50 (Mus musculus [4]): inactive |
| COc1ccc2c3c1OC1C=C(C(C)O)CC4C(C2)N(C)CCC314 (stereo not drawn) |  |  | ED50 (Mus musculus [4]): inactive; ED50 (Rattus norvegicus [2]): inactive |

| Compound | ED50 (Mus musculus [1]) [mg/kg] | ED50 (Rattus norvegicus [3]) [mg/kg] | other results |
| --- | --- | --- | --- |
| CN1CC[C@]23c4c5ccc(O)c4O[C@H]2[C@@H](O)C=C[C@H]3[C@H]1C5.CN1CC[C@]23c4c5ccc(O)c4O[C@H]2[C@@H](O)C=C[C@H]3[C@H]1C5.O=S(=O)(O)O | 0.79 | 7.32 |  |
| CCCCS/C=C1\CC2C3Cc4ccc(OC)c5c4C2(CCN3C)C(O5)C1=O (stereo not drawn) | > 10 | > 10 |  |
| CCCCC(C)(O)C1=CCC23CCN(C)C(Cc4ccc(O)cc42)C3C1 (stereo not drawn) |  |  | ED50 (Mus musculus [4]): inactive |
| CCCCC(O)C1=CCC23CCN(CC4CC4)C(Cc4ccc(OC)cc42)[C@H]3C1 (stereo partly drawn) | 0.21 |  |  |
| COc1ccc2c(c1)C13CCN(CC4CC4)C(C2)[C@H]1CCC(=O)C3 (stereo partly drawn) | > 10 |  | AD50 (Rattus norvegicus [3]): 1.3 mg/kg |
| COc1ccc2c3c1OC1C=C([C@H](O)CCCc4ccccc4)CC4C(C2)N(C)CCC314 (stereo partly drawn) | 0.72 |  |  |
| COc1ccc2c3c1OC1C=C(C(C)=O)CC4C(C2)N(C)CCC314 (stereo not drawn) |  |  | ED50 (Mus musculus [4]): inactive; ED50 (Rattus norvegicus [2]): inactive |
| COc1ccc2c(c1)C13CCN(C)C(C2)[C@H]1CCC(=O)C3 (stereo partly drawn) | 0.49 | 0.66 |  |
| COc1ccc2c(c1)C13CC=C(C=O)C[C@@H]1C(C2)N(C)CC3 (stereo partly drawn) [listing 2 of 2 here] | 0.28 |  |  |
| COc1ccc2c(c1)C13CCN(C)C(C2)C1CCC(=O)C3 (stereo not drawn) |  | > 20 |  |
| CCCCNCC1=CC2Oc3c(OC)ccc4c3C23CCN(C)C(C4)C3C1 (stereo not drawn) |  |  | ED50 (Mus musculus [4]): inactive |
| CCCC[C@H](O)C1=CCC23CCN(C)C(Cc4ccc(OC)cc42)[C@H]3C1 (stereo partly drawn) | 0.0058 | 0.3 |  |
| COc1ccc2c3c1OC1C=C([C@@H](O)CCCc4ccccc4)CC4C(C2)N(C)CCC314 (stereo partly drawn) | 1.6 |  |  |
| CCCC[C@@H](O)C1=CCC23CCN(C)C(Cc4ccc(OC)cc42)[C@H]3C1 (stereo partly drawn) | 0.0062 | 1.8 |  |
| COc1ccc2c3c1OC1C(=O)/C(=C/N(C)C)CC4C(C2)N(C)CCC314 (stereo not drawn) |  |  | ED50 (Mus musculus [4]): inactive; ED50 (Rattus norvegicus [2]): inactive |
| CCCCC(O)C1=CC2Oc3c(OC)ccc4c3C23CCN(C)C(C4)C3(O)C1.Cl (stereo not drawn) | 9.8 |  |  |
